# Data: patent US9522920B2, “Bromodomain inhibitors and uses thereof” (Constellation Pharmaceuticals, Inc., priority 2010, dated 2016)
# Like-named read-outs stand apart in the source and are kept apart here.
# Experiments:
# MYC mRNA = assay: cMyc RNA quantification assay (QuantiGene) in Raji cells; assay type: cell-based; conditions: 4 h
# Method: MV4:11 (AML) or Raji (Burkitt's lymphoma) cells were seeded in a 96-well plate and incubated in the presence of various concentrations of compounds for 4 h. Relative mRNA levels were quantitated by using QuantiGene 2.0 assay (Affymetrix) according to the manufacturer's recommendation. Signals were detected by using an Envision plate reader (Perkin-Elmer). Biological duplicates were averaged and normalized to vehicle (DMSO) control to calculate percent MYC mRNA levels.
# BRD4(BD1) = biological target: T1, BRD4(BD1) (Homo sapiens, UniProt O60885); assay: BRD4 AlphaLisa binding assay (Alphascreen)
# T1 construct: His; made in house
# Method: Specifically, in a 384 well ProxiPlate BRD4(BD1) (30 nM final) was combined with peptide (200 nM final) in 40 mM HEPES (pH 7.0), 40 mM NaCl, 1 mM DTT, 0.01% (w/v) BSA, and 0.008% (w/v) Brij-35 either in the presence of DMSO (final 1.2% DMSO) or compound dilution series in DMSO. After 20 minute incubation at room temperature Alpha streptavidin donor beads and AlphaLisa anti-Flag acceptor beads were added to a final concentration of 10 ug/mL each. After three hours equilibration plates were read on an Envision instrument and IC50s calculated using a four parameter non-linear curve fit.
# IL-6 secretion = assay: Cell-based IL-6 quantification assay (ELISA, Mesoscale) in LPS-stimulated THP-1 cells; conditions: read-out: IL6
# Method: 100,000 THP-1 cells were seeded in RPMI1640-10% FBS in 96-well plates. LPS (E. Coli Invitrogen) in RPMI-10% FBS at a final concentration of 4 μg/mL was added to the wells and the cells are then incubated in the presence of various concentrations of compounds for 16 h. Plates are spun ([…], 5 min), an aliquot of 25 uL supernatant is transferred in to an ELISA plate (Mesoscale technology, MSD) and the detection of IL-6 is performed using manufacturer's instructions. The amount of cells in each well is assessed using CellTiter-Glo® (Promega). The ratio of ELISA value/CellTiter-Glo value is used to calculate the percent of inhibition of IL-6 secretion.
# [1] = Table 7, Raji (Burkitt's lymphoma) cells
# [2] = Table 6, BRD4(BD1) 30 nM, H4-tetraacetyl peptide 200 nM, read-out: BRD4 Alphascreen IC50
# [3] = Table 7, THP-1 cells, LPS 4 μg/mL, 16 h, normalised to CellTiter-Glo
# [4] = Homo sapiens, Table 7, Raji (Burkitt's lymphoma) cells
# [5] = Homo sapiens, THP-1, 16 h, Table 7, THP-1 cells, LPS 4 μg/mL, 16 h, normalised to CellTiter-Glo
# [6] = Homo sapiens, Table 14, Raji cells
# [7] = Table 14, BRD4 AlphaLisa Binding Assay, read-out: Alpha screen
# [8] = Homo sapiens, THP-1, 16 h, Table 14, THP-1 cells, LPS, 16 h
Compound,IC50 (BRD4(BD1); [2]),IC50 (MYC mRNA; [4]),IC50 (IL-6 secretion; [5]),further results
CCNC(=O)C[C@@H]1N=C(c2ccc(C#N)cc2)c2ccccc2-c2c(C)noc21 [Compound 149],< 500 nM,–,–,IC50 (MYC mRNA; [1]): < 500 nM; IC50 (IL-6 secretion; [3]): < 500 nM
"CNc1nccc2c1C(c1ccc(Cl)cc1)=NCc1onc(C)c1-2 [Compound 173, 6-(4-Chlorophenyl)-N,1-dimethyl-4H-isoxazolo[5,4-c]pyrido[4,3-e]azepin-7-amine]",< 500 nM,< 500 nM,< 500 nM,–
Cc1noc2c1-c1sc(C)c(C)c1C(c1ccc(C#N)cc1)=NC2CC(N)=O (stereo not drawn) [Compound 115],< 500 nM,< 500 nM,< 500 nM,–
Cc1noc2c1-c1ccc(OC(F)(F)F)cc1C(c1ccc(Cl)cc1)=N[C@H]2CC(N)=O [Compound 197],–,–,–,IC50 (MYC mRNA; [6]): < 500 nM; IC50 (BRD4(BD1); [7]): < 500 nM; IC50 (IL-6 secretion; [8]): < 500 nM
CC(=O)Nc1ccc(C2=NC(CC(N)=O)c3onc(C)c3-c3sc(C)c(C)c32)cc1 (stereo not drawn) [Compound 118],< 500 nM,< 500 nM,< 500 nM,–
Cc1noc2c1-c1sc(C)c(C)c1C(c1ccc(=O)n(C)c1)=NC2CC(N)=O (stereo not drawn) [Compound 120],< 500 nM,500 to 1000 nM,< 500 nM,–
Cc1noc2c1-c1cccc(Cl)c1C(c1ccc(F)cc1)=N[C@H]2CC(N)=O [Compound 138],< 500 nM,–,–,IC50 (MYC mRNA; [1]): < 500 nM; IC50 (IL-6 secretion; [3]): < 500 nM
"Cc1noc2c1-c1ccnc(N(C)C)c1C(c1ccc(Cl)cc1)=NC2 [Compound 175, 6-(4-Chlorophenyl)-N,N,1-trimethyl-4H-isoxazolo[5,4-c]pyrido[4,3-e]azepin-7-amine]",< 500 nM,> 1000 nM,500 to 1000 nM,–
"Cc1noc2c1-c1sc(C)c(C)c1C(c1ccc(Cl)cc1)=N[C@H]2Cc1ncc[nH]1 [Compound 187, (6S)-6-((1H-imidazol-2-yl)methyl)-4-(4-chlorophenyl)-2,3,9-trimethyl-6H-isoxazolo[5,4-c]thieno[2,3-e]azepine]",< 500 nM,> 1000 nM,–,"IC50 (IL-6 secretion; Homo sapiens, THP-1, 16 h): > 1000 nM"
CCCC1=NC(CC(N)=O)c2onc(C)c2-c2sc(C)c(C)c21 (stereo not drawn) [Compound 124],< 500 nM,> 1000 nM,500 to 1000 nM,–
"Cc1noc2c1-c1sc(C)c(C)c1C(Oc1ccccc1)=N[C@H]2CC(N)=O [Compound 186, 2-((6S)-2,3,9-trimethyl-4-phenoxy-6H-isoxazolo[5,4-c]thieno[2,3-e]azepin-6-yl)acetamide]",500 to 1000 nM,> 1000 nM,–,"IC50 (IL-6 secretion; Homo sapiens, THP-1, 16 h): 500 to 1000 nM"
Cc1noc2c1-c1ccccc1C(c1ccc(Cl)cc1)=N[C@H]2CC(=O)NCCF [Compound 199],–,–,–,IC50 (MYC mRNA; [6]): < 500 nM; IC50 (BRD4(BD1); [7]): < 500 nM; IC50 (IL-6 secretion; [8]): < 500 nM
"CCOC(=O)NC1N=C(c2ccc(Cl)cc2)c2ccccc2-c2c1noc2C (stereo not drawn) [Compound 155, Ethyl (6-(4-chlorophenyl)-1-methyl-4H-benzo[c]isoxazolo[4,3-e]azepin-4-yl)carbamate]",< 500 nM,< 500 nM,500 to 1000 nM,–
Cc1cccc2c1C(c1ccc(Cl)cn1)=N[C@@H](CC(N)=O)c1onc(C)c1-2 [Compound 133],< 500 nM,–,–,IC50 (MYC mRNA; [1]): 500 to 1000 nM; IC50 (IL-6 secretion; [3]): < 500 nM
Cc1noc2c1-c1ccc(Cl)cc1C(c1ccc(C(F)(F)F)cc1)=N[C@H]2CC(N)=O [Compound 201],–,–,–,IC50 (MYC mRNA; [6]): 500 to 1000 nM; IC50 (BRD4(BD1); [7]): < 500 nM; IC50 (IL-6 secretion; [8]): < 500 nM
Cc1noc2c1-c1sc(C)c(C)c1C(c1ccc(C(N)=O)cc1)=NC2CC(N)=O (stereo not drawn) [Compound 116],< 500 nM,< 500 nM,< 500 nM,–
"Cc1noc2c1-c1c[nH]c(=O)cc1C(c1ccc(Cl)cc1)=NC2 [Compound 266, 6-(4-Chlorophenyl)-1-methyl-4H-isoxazolo[5,4-c]pyrido[3,4-e]azepin-8(9H)-one]",–,–,–,IC50 (BRD4(BD1); [7]): < 500 nM; IC50 (IL-6 secretion; [8]): < 500 nM
Cc1noc2c1-c1sc(C)c(C)c1C(OC(C)C)=N[C@H]2CC(N)=O [Compound 193],–,–,–,"IC50 (BRD4(BD1); [7]): 500 to 1000 nM; IC50 (IL-6 secretion; Table 14, THP-1 cells, LPS, 16 h): > 1000 nM"
Cc1noc2c1-c1sc(C)c(C)c1C(N1CCCN(C)CC1)=NC2CC(N)=O (stereo not drawn) [Compound 123],> 1000 nM,–,> 1000 nM,–
